The target of experiment [1] is FAAH (rat brain homogenate) (Rattus norvegicus, UniProt P97612). The experiment can be described thus: biochemical.
The target of experiment [2] is T1, FAAH in human bladder epithelial cancer-derived cell line 5678 cells (Homo sapiens, UniProt O00519).
T1 construct: host or cells: human bladder epithelial cancer-derived cell line ('5678' [sic], HTB-9)
T1 sequence (O00519 1-579): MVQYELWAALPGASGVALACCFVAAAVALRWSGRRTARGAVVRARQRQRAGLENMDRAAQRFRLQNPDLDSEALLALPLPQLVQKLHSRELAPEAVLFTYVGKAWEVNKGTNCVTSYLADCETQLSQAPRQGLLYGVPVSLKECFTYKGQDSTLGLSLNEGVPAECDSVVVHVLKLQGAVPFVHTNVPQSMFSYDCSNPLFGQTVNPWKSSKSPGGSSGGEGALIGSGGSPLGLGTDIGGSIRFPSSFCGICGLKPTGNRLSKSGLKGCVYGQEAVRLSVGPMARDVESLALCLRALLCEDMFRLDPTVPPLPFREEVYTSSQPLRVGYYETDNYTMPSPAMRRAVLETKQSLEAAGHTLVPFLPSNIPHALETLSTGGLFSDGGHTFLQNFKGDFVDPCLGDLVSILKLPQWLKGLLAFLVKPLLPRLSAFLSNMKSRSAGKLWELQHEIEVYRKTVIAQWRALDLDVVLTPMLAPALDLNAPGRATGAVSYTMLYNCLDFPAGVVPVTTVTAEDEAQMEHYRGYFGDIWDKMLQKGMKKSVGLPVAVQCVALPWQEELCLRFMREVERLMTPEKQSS
The experiment can be described thus: Screening for FAAH activity-inhibiting substance with human bladder epithelial cancer-derived cell (IC50, Table 64). Type of experiment: cell-based. The protocol:
Screening for FAAH Activity-Inhibiting Substance with Human Bladder Epithelial Cancer-Derived Cell
(1) Screening for FAAH Activity-Inhibiting Substance:
Human bladder epithelial cancer-derived cell line […] cells (HTB-9; ATCC) were seeded on a 48-well cell culture plate in an amount of 1×10^5 cell/well, using 10% fetal bovine serum (HyClone)-containing RPMI1640 medium (Invitrogen). After incubated at 37° C. for at least 12 hours, the cells were washed with 400 μl/well of a buffer (Hank's Balanced Salt Solution, 20 mM Hepes-NaOH (pH 7.4)). A test substance dissolved in DMSO was added to a substrate solution (the above buffer containing 3 μCi/ml radiolabeled anandamide (Anandamide [ethanolamine 1-3H]) and 10 μM anandamide) so as to have a concentration of from 0.003 nM to 30 nM. As a control, DMSO alone was added. 100 μl/well of the substrate solution was added to the above cells, and incubated in a CO2 incubator at 37° C. for 30 minutes. Next, the cell culture plate was transferred onto ice, and the substrate solution was removed by suction; and 75 μl/well of a cytolytic solution (the above buffer containing 0.5% Triton X-100, and 10 μM of FAAH-inhibitory activity-having compound, 3′-carbamoylbiphenyl-3-yl cyclohexylcarbamate (URB597; Cayman chemical; Kathuria et al., Nature Med., Vol. 9, pp. 76-81, 2003)) was added thereto, followed by stirring. The resulting cell lysate in every well was individually transferred into a 1.5 ml sample tube, to which was added 150 μl of 1:1 (by volume) chloroform/methanol solution, followed by vortexing. This was centrifuged (15000 rpm, 2 minutes), whereby the decomposed product, ethanolamine (ethanolamine 1-^3H) was separated in the upper layer (water/methanol layer) and the unreacted radiolabeled anandamide was in the lower layer (chloroform layer). 25 μl of the upper layer was transferred into a 96-well organic solvent-resistant white microplate (PicoPlate-96; Perkin Elmer), 150 μl of Microscint-20 (Perkin Elmer) was added thereto, and this was measured with a microplate scintillation counter (TopCount™; Beckman). As compared with the control, the substance that gave a decreased value was selected as an FAAH activity-inhibiting substance.
(2) Measurement of IC50 Value of FAAH Activity-Inhibiting Substance:
A test compound dissolved in DMSO to have a concentration of 10 mM was dissolved in the substrate solution so as to have a varying concentration of from 0.003 nM to 30 μM. According to the method mentioned above, the compound was analyzed for its influence on FAAH activity. As a negative control, DMSO was used. As a positive control, URB597 was added to the substrate solution to have a concentration of 10 μM. Based on the measured value of the positive control, 0%, and on the measured value of the negative control, 100%, IC50 value of the test substance was obtained.

Experiment [3] concerns CPA-induced urinary frequency in rat. The experiment in a line: animal or person. The conditions noted are these: po, 48 h, read-out: effective dose (increase of reduced effective bladder capacity). Type of experiment: in vivo.

The structures appear in SMILES notation. pIC50: −log10 of the molar value.

Sequence of FAAH (rat brain homogenate) (P97612 whole entry): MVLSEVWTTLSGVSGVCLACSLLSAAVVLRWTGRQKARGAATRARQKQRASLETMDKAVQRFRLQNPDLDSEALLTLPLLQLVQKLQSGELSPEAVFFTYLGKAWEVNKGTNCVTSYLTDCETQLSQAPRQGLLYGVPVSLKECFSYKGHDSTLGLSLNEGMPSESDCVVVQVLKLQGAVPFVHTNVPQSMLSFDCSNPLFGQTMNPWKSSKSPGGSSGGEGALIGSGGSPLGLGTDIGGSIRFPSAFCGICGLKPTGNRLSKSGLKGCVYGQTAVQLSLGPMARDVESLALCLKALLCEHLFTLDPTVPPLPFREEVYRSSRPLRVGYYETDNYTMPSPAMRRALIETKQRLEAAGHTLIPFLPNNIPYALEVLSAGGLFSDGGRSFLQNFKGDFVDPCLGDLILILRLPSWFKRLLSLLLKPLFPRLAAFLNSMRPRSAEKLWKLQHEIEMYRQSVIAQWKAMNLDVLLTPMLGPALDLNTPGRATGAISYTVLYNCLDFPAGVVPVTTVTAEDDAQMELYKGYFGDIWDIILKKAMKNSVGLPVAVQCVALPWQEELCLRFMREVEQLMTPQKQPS

One may read the pIC50 as the negative decadic logarithm of the IC50, by convention in mol/L. On to `O=C(Oc1cccnc1)N1CCC(Oc2ccc(OCc3cccc(F)c3)cc2)CC1` [Example 2, (pyridin-3-yl) 4-{4-[(3-fluorobenzyl)oxy]phenoxy}piperidine-1-carboxylate], for which the figures for the negative-log IC50 (pIC50) in experiment [1] and in experiment [2] were 9.85 and 9.96, respectively. Further, in experiment [3], the minimal effective dose was 3 mg/kg.

Take `N#Cc1cccc(COc2ccc(C(=O)N3CCN(C(=O)Oc4cccnc4)CC3)cc2)c1` [Example 151]: the negative logarithm of the IC50 (pIC50) in experiment [1] was 7.57; in experiment [2], 9.77.

On to `O=C(O)c1cncc(OC(=O)N2CCC(Oc3ccc(OCc4cccc(F)c4)cc3)CC2)c1` [Example 218, 5-{[(4-{4-[(3-fluorobenzyl)oxy]phenoxy}piperidin-1-yl)carbonyl]oxy}nicotinic acid], for which the pIC50 in experiment [2] is 9.36. The minimal effective dose in experiment [3] worked out at 3 mg/kg.

Regarding `O=C(O)c1cncc(OC(=O)N2CCC(Oc3ccc(OCCC4CCCCC4)cc3)CC2)c1` [Example 228], the pIC50 in experiment [1] was 9.72; in experiment [2], 9.66. Besides, the minimal effective dose in experiment [3] was found to be 1 mg/kg.

With `O=C(O)C(=O)O.O=C(O)C1CCN(c2cncc(OC(=O)N3CCC(Oc4ccc(OCc5cccc(F)c5)cc4)CC3)c2)CC1` [Example 261, 1-(5-{[(4-{4-[(3-fluorobenzyl)oxy]phenoxy}piperidin-1-yl)carbonyl]oxy}pyridin-3-yl)piperidine-4-carboxylic acid oxalate], the pIC50 in experiment [2] was 9.27. Besides, the minimal effective dose in experiment [3] is 3 mg/kg.

Consider `Cc1cccc(N2CCC(CCCC3CCN(C(=O)Oc4cncc(C(=O)O)c4)CC3)CC2)n1` [Example 313], for which the pIC50 in experiment [2] was 9.05. For the same compound, in experiment [3], the minimal effective dose is 1 mg/kg.

Compound `CN(C)C(=O)c1cccc(CCC2CCN(C(=O)Oc3cncc(C(N)=O)c3)CC2)c1` [Example 325] had a pIC50 in experiment [2] of 9.27. In experiment [3], the minimal effective dose came out at 1 mg/kg.

On to `NC(=O)c1cncc(OC(=O)N2CCC(CCc3cccc(C(=O)N4CCCC4)c3)CC2)c1` [Example 359], for which the negative-log IC50 (pIC50) was 8.89 in experiment [1] and 9.28 in experiment [2]. Besides, the minimal effective dose in experiment [3] came to 1 mg/kg.

The values above are taken from patent US7919495B2, “Pyridyl non-aromatic nitrogen-containing heterocyclic-1-carboxylate compound” (Astellas Pharma, Inc., priority 2005, dated 2011).
